# Reference: patent publication US9204653B2, “5-fluoro pyrimidine derivatives” (DOW AGROSCIENCES LLC, priority 2008, dated 2015)
# Where two headings read alike, the source gives them in different places.
# Test system: Mycosphaerella graminicola; Anamorph: Septoria tritici; Bayer Code SEPTTR
# Test: Leaf blotch of wheat, foliar fungicide treatment, one day protectant (1DP) or three day curative (3DC)
# Type: in vivo, Septoria tritici on wheat plants (variety Yuma)
# Settings: Zymoseptoria tritici, rating of percent disease control
# [1] = 24 h, one day protectant (1DP), read-out: SETTTR 1DP 25 ppm
# [2] = 24 h, one day protectant (1DP), read-out: SEPTTR 1DP 100 ppm
# [3] = 72 h, three day curative (3DC), read-out: SEPTTR 3DC 25 ppm
# [4] = 72 h, three day curative (3DC), read-out: SEPTTR 3DC 100 ppm
SMILES,pest or weed control at 25 ppm [1],pest or weed control at 100 ppm [2],pest or weed control at 25 ppm [3],pest or weed control at 100 ppm [4]
Nc1cccc(COc2ncc(F)c(N)n2)c1 [Compound 430],76 to 100%,76 to 100%,76 to 100%,76 to 100%
Cc1cc(COc2ncc(F)c(N)n2)nn1C [Compound 431],76 to 100%,76 to 100%,76 to 100%,76 to 100%
CC1(COc2ncc(F)c(N)n2)COC1 [Compound 433],0 to 25%,0 to 25%,0 to 25%,0 to 25%
CC[Si](CC)(CC)Nc1nc(OCc2ccn(C)n2)ncc1F [Compound 434],76 to 100%,76 to 100%,76 to 100%,76 to 100%
O=C(Nc1nc(OCc2ccccc2)ncc1F)c1ccccc1 [Compound 435],76 to 100%,76 to 100%,51 to 75%,76 to 100%
N#Cc1cc(COc2ncc(F)c(N)n2)ccn1 [Compound 437],0 to 25%,51 to 75%,0 to 25%,51 to 75%
Fc1ccccc1CNC(=S)Nc1nc(OCc2ccccc2)ncc1F [Compound 438],51 to 75%,76 to 100%,0 to 25%,0 to 25%
Cc1cc(C)cc(COc2ncc(F)c(NSc3ccccc3[N+](=O)[O-])n2)c1 [Compound 440],0 to 25%,0 to 25%,26 to 50%,0 to 25%
CC(C)Oc1cccc(COc2ncc(F)c(N)n2)c1 [Compound 441],76 to 100%,76 to 100%,76 to 100%,76 to 100%
Nc1nc(OCc2snc(Cl)c2Cl)ncc1F [Compound 442],76 to 100%,76 to 100%,76 to 100%,76 to 100%
Cc1ccc(COc2ncc(F)c(NSc3ccccc3[N+](=O)[O-])n2)cc1 [Compound 443],76 to 100%,76 to 100%,26 to 50%,26 to 50%
COc1ccccc1OC(=O)Oc1ncc(F)c(/N=C/N(C)C)n1 [Compound 444],76 to 100%,76 to 100%,76 to 100%,76 to 100%
CCCNC(=O)N(C(=O)NCCC)c1nc(OCc2cccc(F)c2)ncc1F [Compound 445],51 to 75%,76 to 100%,76 to 100%,76 to 100%
COc1cc(COc2ncc(F)c(N)n2)c(OC)cc1C [Compound 450],76 to 100%,76 to 100%,76 to 100%,51 to 75%
N#CNc1nc(OCc2ccc(F)cc2)ncc1F [Compound 451],0 to 25%,0 to 25%,0 to 25%,0 to 25%
O=C(Cc1ccccc1)Nc1nc(OCc2cccs2)ncc1F [Compound 453],76 to 100%,76 to 100%,51 to 75%,76 to 100%
ON(c1nc(OCc2ccc(F)cc2)ncc1F)C1CCCCC1 [Compound 454],0 to 25%,76 to 100%,26 to 50%,0 to 25%
Nc1nc(OCCc2ccc(Cl)cc2)ncc1F [Compound 455],51 to 75%,76 to 100%,26 to 50%,76 to 100%
NN(Cc1ccccc1Cl)c1nc(OCc2ccc(F)cc2)ncc1F [Compound 456],51 to 75%,76 to 100%,0 to 25%,76 to 100%
COCCCOc1ncc(F)c(/N=C/N(C)C)n1 [Compound 457],51 to 75%,76 to 100%,51 to 75%,76 to 100%
Fc1cccc(COc2ncc(F)c(NCOCc3ccccc3)n2)c1 [Compound 458],0 to 25%,51 to 75%,0 to 25%,0 to 25%
COCCOC(=O)Nc1nc(OCc2cccc(OC)c2)ncc1F [Compound 459],51 to 75%,76 to 100%,76 to 100%,76 to 100%
Nc1nc(OCc2cccc(OC(F)(F)F)c2)ncc1F [Compound 460],76 to 100%,76 to 100%,76 to 100%,76 to 100%

SMILES,pest or weed control at 25 ppm [1],pest or weed control at 100 ppm [2],pest or weed control at 25 ppm [3],pest or weed control at 100 ppm [4]
COc1ccc(CCCOc2ncc(F)c(N)n2)cc1 [Compound 462],51 to 75%,76 to 100%,51 to 75%,26 to 50%
COc1cccc(COc2ncc(F)c(NOC(C)C)n2)c1 [Compound 463],0 to 25%,51 to 75%,26 to 50%,51 to 75%
COc1ccc(COc2ncc(F)c(NC(=O)NCc3ccccc3F)n2)cc1F [Compound 464],0 to 25%,0 to 25%,0 to 25%,26 to 50%
Nc1nc(OCc2ccc3ccccc3n2)ncc1F [Compound 465],76 to 100%,76 to 100%,76 to 100%,76 to 100%
CC(C)OC(=O)Oc1ncc(F)c(/N=C/N(C)C)n1 [Compound 467],76 to 100%,76 to 100%,76 to 100%,76 to 100%
Nc1nc(OCc2cccc(Cl)c2)ncc1F [Compound 468],76 to 100%,76 to 100%,76 to 100%,76 to 100%
Cc1cc(C)nc(NNc2nc(OCc3ccccc3)ncc2F)n1 [Compound 470],0 to 25%,0 to 25%,26 to 50%,26 to 50%
Nc1nc(OCc2cn3ccsc3n2)ncc1F [Compound 472],76 to 100%,76 to 100%,76 to 100%,76 to 100%
NNc1nc(OCc2ccc(F)cc2)ncc1F [Compound 473],26 to 50%,76 to 100%,26 to 50%,76 to 100%
CC(Oc1ncc(F)c(N)n1)c1ccc(Oc2ccccc2)cc1 (stereo not drawn) [Compound 474],76 to 100%,76 to 100%,76 to 100%,76 to 100%
CCCNC(=S)Nc1nc(OCc2ccccc2OC)ncc1F [Compound 475],51 to 75%,76 to 100%,51 to 75%,76 to 100%
COc1ccc(COc2ncc(F)c(N)n2)cc1C(F)(F)F [Compound 476],76 to 100%,76 to 100%,76 to 100%,76 to 100%
O=C(NCc1ccccc1F)Nc1nc(OCc2ccc(F)cc2)ncc1F [Compound 477],0 to 25%,0 to 25%,0 to 25%,51 to 75%
O=C(Nc1nc(OCc2cccc(F)c2)ncc1F)OCc1ccccc1 [Compound 478],51 to 75%,76 to 100%,76 to 100%,76 to 100%
O=[N+]([O-])c1ccccc1SNc1nc(OCc2c(F)cc(Br)cc2F)ncc1F [Compound 479],76 to 100%,76 to 100%,51 to 75%,51 to 75%
CNc1nc(OCc2cc(OC)c(OC)c(OC)c2)ncc1F [Compound 480],0 to 25%,0 to 25%,0 to 25%,0 to 25%
NN(c1ccccc1)c1nc(OCc2ccccc2)ncc1F [Compound 482],0 to 25%,0 to 25%,0 to 25%,26 to 50%
CN(C)/C=N/c1nc(OC(=O)c2cccc(Cl)c2)ncc1F [Compound 484],76 to 100%,76 to 100%,76 to 100%,76 to 100%
O=C(Nc1ccccc1)Nc1nc(OCc2ccc(F)cc2)ncc1F [Compound 485],0 to 25%,0 to 25%,0 to 25%,0 to 25%
Cc1noc(-c2ccccc2COc2ncc(F)c(N)n2)n1 [Compound 486],0 to 25%,0 to 25%,26 to 50%,26 to 50%
CN(O)c1nc(OCc2ccc(F)cc2)ncc1F [Compound 487],0 to 25%,76 to 100%,0 to 25%,76 to 100%
CC#CCOc1ncc(F)c(N)n1 [Compound 489],0 to 25%,51 to 75%,76 to 100%,76 to 100%
